One block for each compound: values may come before it.
Assays:
mouse liver FBPase = biological target: T1, mouse liver FBPase (Mus musculus, UniProt Q9QXD6); experiment: Inhibition of mouse liver FBPase; assay type: biochemical; conditions: partially purified mouse liver fraction
T1 construct: This partially purified fraction was used for enzyme assays; from tissue; host or cells: mouse liver, 45-75% ammonium sulfate fraction
T1 sequence (Q9QXD6 2-338 limits assumed): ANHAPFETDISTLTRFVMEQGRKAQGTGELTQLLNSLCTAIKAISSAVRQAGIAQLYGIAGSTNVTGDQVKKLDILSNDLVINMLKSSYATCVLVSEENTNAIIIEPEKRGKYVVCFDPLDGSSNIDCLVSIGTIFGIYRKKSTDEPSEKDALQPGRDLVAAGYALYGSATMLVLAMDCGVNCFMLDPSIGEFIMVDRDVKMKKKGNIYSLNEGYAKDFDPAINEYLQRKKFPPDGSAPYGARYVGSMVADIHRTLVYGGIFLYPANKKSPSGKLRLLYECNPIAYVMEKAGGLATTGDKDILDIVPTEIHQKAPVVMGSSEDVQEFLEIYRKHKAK
Protocol: Enzymatic activity was measured spectrophotometrically in reactions that coupled the formation of product (fructose 6-phosphate) to the reduction of dimethylthiazoldiphenyltetrazolium bromide (MTT) via NADP and phenazine methosulfate (PMS), using phosphoglucose isomerase and glucose 6-phosphate dehydrogenase as the coupling enzymes. Reaction mixtures (200 μl) were made up in 96-well microtitre plates, and consisted of 50 mM Tris-HCl, pH 7.4, 100 mM KCl, 5 mM EGTA, 2 mM MgCl2, 0.2 mM NADP, 1 mg/ml BSA, 1 mM MTT, 0.6 mM PMS, 1 unit/mL phosphoglucose isomerase, 2 units/mL glucose 6-phosphate dehydrogenase, and 0.150 mM substrate (fructose 1,6-bisphosphate). Inhibitor concentrations were varied from 0.01 μM to 10 μM.
Mouse liver FBPase was obtained by homogenizing freshly isolated mouse liver in 100 mM Tris-HCl buffer, pH 7.4, containing 1 mM EGTA, and 10% glycerol. […] This fraction was redissolved in the homogenization buffer and desalted on a PD-10 gel filtration column (Biorad) eluted with same. This partially purified fraction was used for enzyme assays. Both rat liver and mouse liver FBPase were assayed as described for human liver FBPase.

human liver FBPase = biological target: T2, human liver FBPase (Homo sapiens, UniProt P09467); experiment: Inhibition of human liver FBPase; assay type: biochemical; conditions: for inhibition of human liver FBPase activity (FIG. 2): result in words
T2 construct: made in house; host or cells: E. coli BL21
T2 sequence (P09467 2-338 limits assumed): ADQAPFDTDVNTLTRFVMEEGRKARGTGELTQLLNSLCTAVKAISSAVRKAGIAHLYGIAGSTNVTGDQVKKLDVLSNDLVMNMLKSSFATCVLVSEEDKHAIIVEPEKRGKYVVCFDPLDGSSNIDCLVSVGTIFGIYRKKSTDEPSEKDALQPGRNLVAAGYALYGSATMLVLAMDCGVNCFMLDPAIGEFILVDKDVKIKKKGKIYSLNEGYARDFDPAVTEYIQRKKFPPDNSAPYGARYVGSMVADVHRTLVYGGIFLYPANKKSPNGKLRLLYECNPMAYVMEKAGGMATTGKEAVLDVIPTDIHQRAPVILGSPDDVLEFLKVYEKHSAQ

[1] = system: fasted Sprague Dawley rats; experiment: Blood glucose lowering in fasted rats; assay type: in vivo, rat; conditions: 20 mg/kg intraperitoneally, 18 hours fasted Sprague Dawley rats, one hour post injection
Protocol: Sprague Dawley rats (250-300 g) were fasted for 18 hours and then dosed intraperitoneally with 20 mg/kg of compounds 12.53, 12.61, or 12.64. The vehicle used for drug administration was 50 mM sodium bicarbonate. Blood samples were obtained from the tail vein of conscious animals just prior to injection and one hour post injection. Blood glucose was measured using a HemoCue Inc. glucose analyzer according to the instructions of the manufacturer.

rat hepatocytes = experiment: Inhibition of gluconeogenesis in rat hepatocytes; assay type: cell-based
Protocol: Hepatocytes were prepared from overnight fasted Sprague-Dawley rats (250-300 g) according to the procedure of Berry and Friend (Berry, M. N., Friend, D. S., 1969, J. Cell. Biol. 43, 506-520) as modified by Groen (Groen, A. K., Sips, H. J., Vervoorn, R. C., Tager, J. M., 1982, Eur. J. Biochem. 122, 87-93). Hepatocytes (75 mg wet weight/mL) were incubated in 1 ml Krebs-bicarbonate buffer containing 10 mM Lactate, 1 mM pyruvate, 1 mg/mL BSA, and test compound concentrations from 1 to 500 μM. Incubations were carried out in a 95% oxygen, 5% carbon dioxide atmosphere in closed, 50-mL Falcon tubes submerged in a rapidly shaking water bath (37° C.). After 1 hour, an aliquot (0.25 mL) was removed, transferred to an Eppendorf tube and centrifuged. 50 μL of supernatant was then assayed for glucose content using a Sigma Glucose Oxidase kit as per the manufacturer's instructions.

[2] = Estimation of the oral bioavailability of prodrugs of phosphonic acids; assay type: in vivo; conditions: rat; for % Oral bioavailability: prodrug by oral gavage approximately 20 or 40 mg/kg parent equivalents, urinary recovery of parent vs i.v. parent
Protocol: Prodrugs were dissolved in 10% ethanol/90% polyethylene glycol (mw 400) and administered by oral gavage at doses of approximately 20 or 40 mg/kg parent compound equivalents to 6-hour fasted, Sprague Dawley rats (220-240 g). The rats were subsequently placed in metabolic cages and urine was collected for 24 hours. The quantity of parent compound excreted into urine was determined by HPLC analysis. An ODS column eluted with a gradient from potassium phosphate buffer, pH 5.5 to acetonitrile was employed for these measurements. Detection was at 310-325 nm. […] Parent compounds were typically dissolved in dimethyl sulfoxide, and administered via the tail vein in animals that were briefly anesthetized with halothane.

hlFBPase = biological target: T3, hlFBPase (Homo sapiens, UniProt P09467); experiment: AMP site binding (displacement of radiolabeled AMP)
T3 construct: made in house; host or cells: E. coli BL21
T3 sequence (P09467 2-338 limits assumed): T2 sequence (P09467 2-338 limits assumed)
Protocol: To determine whether compounds bind to the allosteric AMP binding site of hlFBPase, the enzyme was incubated with radiolabeled AMP in the presence of a range of test compound concentrations. The reaction mixtures consisted of […] ^3H-AMP (54 mCi/mmol) and […] test compound in 25 mM Tris-HCl, pH 7.4, 100 mM KCl and 1 mM MgCl2. 1.45 mg of homogeneous FBPase (±1 nmole) was added last. After a 1 minute incubation, AMP bound to FBPase was separated from unbound AMP by means of a centrifugal ultrafiltration unit (“Ultrafree-MC”, Millipore) used according to the instructions of the manufacturer. The radioactivity in aliquots (100 μL) of the upper compartment of the unit (the retentate, which contrains enzyme and label) and the lower compartment (the filtrate, which contains unbound label) were quantified using a Beckman liquid scintillation counter. The amount of AMP bound to the enzyme was estimated by comparing the counts in the filtrate (the unbound label) to the total counts in the retentate.

SMILES: CCc1ccc2c(nc(-c3ccc(P(=O)(O)O)o3)n2CC(C)C)c1N [Compound 12.52, 4-Amino-5-ethyl-1-isobutyl-2-(2-phosphono-5-furanyl)benzimidazole]
melting point: 220 to 225 °C
IC50 (mouse liver FBPase): 0.78 µM
inhibition of human liver FBPase activity (FIG. 2) (human liver FBPase): inhibit human liver FBPase activity in vitro in a dose dependent manner

SMILES: CC(C)Cn1c(-c2ccc(P(=O)(O)O)o2)nc2c(N)c(F)ccc21 [Compound 12.53, 4-Amino-5-fluoro-1-isobutyl-2-(2-phosphono-5-furanyl)benzimidazole]
melting point: 230 to 235 °C
inhibition of human liver FBPase activity (FIG. 2) (human liver FBPase): inhibit human liver FBPase activity in vitro in a dose dependent manner
blood glucose lowering [1]: 55±14%
IC50 (rat hepatocytes; Hepatocyte, glucose production from lactate/pyruvate, isolated rat hepatocytes, 1 hour): 2.4 µM
inhibition of glucose production in rat hepatocytes (FIG. 4) (rat hepatocytes; result in words): inhibit glucose production in vitro in rat hepatocytes

SMILES: CC(=O)OCC1COP(=O)(c2ccc(-c3nc4ccc(Cl)cc4n3CC(C)C)o2)OC1 (centres unmarked) [Compound 31.14, 6-Chloro-1-isobutyl-2-{5-[2-(acetoxymethyl)-propan-1,3-yl]phosphono-2-furanyl}benzimidazole]
% Oral bioavailability [2]: 12.5%

SMILES: COC(=O)OCC1COP(=O)(c2ccc(-c3nc4ccc(Cl)cc4n3CC(C)C)o2)OC1 (centres unmarked) [Compound 31.15, 6-Chloro-1-isobutyl-2-{5-[2-(methoxycarbonyloxymethyl)-propan-1,3-yl]phosphono-2-furanyl}benzimidazole]
% Oral bioavailability [2]: 14.1%

SMILES: NC(=O)c1ncn([C@@H]2O[C@H](COP(=O)(O)O)[C@@H](O)[C@H]2O)c1N [ZMP, 5-aminoimidazole-4-carboxamide riboside monophosphate, reference compound]
EC50 (hlFBPase; displacement of 3H-AMP from hlFBPase, read-out: ED50 for AMP displacement): 250 µM
displacement of AMP from human liver FBPase (FIG. 3) (hlFBPase; result in words): displaced AMP from human liver FBPase in a dose dependent manner
IC50 (human liver FBPase; values in text, read-out: hlFBPase IC50): 12 µM

Other lines, results leading:

oral bioavailability (calculated 6.2/76.8) ([2]; oral approximately 20 mg/kg): approximately 8%
% of oral dose recovered in urine ([2]; oral approximately 20 mg/kg, parent compound in 24 hour urine): 6.2%
SMILES: CC(C)C(=O)OCOP(=O)(OCOC(=O)C(C)C)c1ccc(-c2nc3c(N)ncnc3n2CC(C)(C)C)o1 [Compound A]

% of intravenous dose recovered in urine ([2]; intravenous approximately 10 mg/kg, 24 hour urine): 76.8%
SMILES: CC(C)(C)Cn1c(-c2ccc(P(=O)(O)O)o2)nc2c(N)ncnc21 [Compound B]

% Oral bioavailability [2]: 5.3%
SMILES: CC(C)(C)Cn1c(-c2ccc(P(=O)(OCOC(=O)C(C)(C)C)OCOC(=O)C(C)(C)C)o2)nc2c(N)ncnc21 [Compound C]
